In PMC6657673, “Synthesis of an α-phosphono-α,α-difluoroacetamide analogue of the diphosphoinositol pentakisphosphate 5-InsP7” (MedChemComm, 2019):

Target: T1, diphosphoinositol pentakisphosphate kinase 2 (PPIP5K2) (Homo sapiens, UniProt O43314)
T1 construct: kinase domain, residues 41–366 (crystal); residues 1–366 (kinase assay)
T1 sequence (O43314 1-366): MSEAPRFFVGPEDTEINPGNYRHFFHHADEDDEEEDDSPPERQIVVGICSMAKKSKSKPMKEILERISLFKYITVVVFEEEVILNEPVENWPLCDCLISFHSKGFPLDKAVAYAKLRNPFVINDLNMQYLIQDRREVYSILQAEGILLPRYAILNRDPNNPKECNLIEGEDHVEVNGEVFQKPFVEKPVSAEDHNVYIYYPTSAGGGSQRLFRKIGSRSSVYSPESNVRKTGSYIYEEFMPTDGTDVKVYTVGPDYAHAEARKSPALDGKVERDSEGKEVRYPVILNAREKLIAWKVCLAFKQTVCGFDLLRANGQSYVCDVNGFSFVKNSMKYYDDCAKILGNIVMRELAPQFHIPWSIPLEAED
Experiment: X-ray co-crystal structure (soak); also reverse-kinase inhibition assay (ATP generation from ADP and […]-[PP]2-InsP4)
Format: biochemical

O=C(N[C@@H]1[C@@H](OP(=O)(O)O)[C@H](OP(=O)(O)O)[C@H](OP(=O)(O)O)[C@H](OP(=O)(O)O)[C@H]1OP(=O)(O)O)C(F)(F)P(=O)(O)O [compound 1, 5-Deoxy-5-(phosphonodifluoroacetamido)-myo-inositol 1,2,3,4,6-pentakisphosphate]
IC50: 375 nM
